Source: BindingDB's records for doi:10.1021/acs.jmedchem.6b00596 (University of Connecticut Health Center, 2016)

Target: Ubiquitin carboxyl-terminal hydrolase 1/WD repeat-containing protein 48 (Homo sapiens, UniProt O94782+Q8TAF3)
Assay: Inhibition of human USP1/UAF1 complex using Ub-Rho as substrate by qHTS assay

Ubiquitin carboxyl-terminal hydrolase 1/WD repeat-containing protein 48, sequence (O94782 whole entry, looked up): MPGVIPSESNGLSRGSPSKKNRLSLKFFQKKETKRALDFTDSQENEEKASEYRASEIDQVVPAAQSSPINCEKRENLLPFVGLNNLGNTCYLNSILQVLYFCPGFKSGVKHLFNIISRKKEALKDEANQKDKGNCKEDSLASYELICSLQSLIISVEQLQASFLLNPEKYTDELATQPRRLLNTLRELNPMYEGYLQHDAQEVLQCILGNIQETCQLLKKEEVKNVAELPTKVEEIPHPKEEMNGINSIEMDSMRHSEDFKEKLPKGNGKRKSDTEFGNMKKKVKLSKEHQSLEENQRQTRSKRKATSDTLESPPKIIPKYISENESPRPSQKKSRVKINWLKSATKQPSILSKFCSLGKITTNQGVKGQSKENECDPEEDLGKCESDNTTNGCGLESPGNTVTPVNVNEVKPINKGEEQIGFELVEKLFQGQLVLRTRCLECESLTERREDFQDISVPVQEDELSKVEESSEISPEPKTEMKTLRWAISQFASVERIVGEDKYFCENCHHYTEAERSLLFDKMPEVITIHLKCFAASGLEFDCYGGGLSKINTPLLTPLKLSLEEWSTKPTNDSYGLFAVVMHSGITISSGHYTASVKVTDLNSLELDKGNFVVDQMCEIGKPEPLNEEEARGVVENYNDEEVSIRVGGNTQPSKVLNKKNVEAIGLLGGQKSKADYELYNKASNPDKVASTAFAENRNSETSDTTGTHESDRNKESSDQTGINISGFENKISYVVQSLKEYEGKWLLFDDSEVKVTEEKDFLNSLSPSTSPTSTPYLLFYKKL
Ubiquitin carboxyl-terminal hydrolase 1/WD repeat-containing protein 48, sequence (Q8TAF3 whole entry, looked up): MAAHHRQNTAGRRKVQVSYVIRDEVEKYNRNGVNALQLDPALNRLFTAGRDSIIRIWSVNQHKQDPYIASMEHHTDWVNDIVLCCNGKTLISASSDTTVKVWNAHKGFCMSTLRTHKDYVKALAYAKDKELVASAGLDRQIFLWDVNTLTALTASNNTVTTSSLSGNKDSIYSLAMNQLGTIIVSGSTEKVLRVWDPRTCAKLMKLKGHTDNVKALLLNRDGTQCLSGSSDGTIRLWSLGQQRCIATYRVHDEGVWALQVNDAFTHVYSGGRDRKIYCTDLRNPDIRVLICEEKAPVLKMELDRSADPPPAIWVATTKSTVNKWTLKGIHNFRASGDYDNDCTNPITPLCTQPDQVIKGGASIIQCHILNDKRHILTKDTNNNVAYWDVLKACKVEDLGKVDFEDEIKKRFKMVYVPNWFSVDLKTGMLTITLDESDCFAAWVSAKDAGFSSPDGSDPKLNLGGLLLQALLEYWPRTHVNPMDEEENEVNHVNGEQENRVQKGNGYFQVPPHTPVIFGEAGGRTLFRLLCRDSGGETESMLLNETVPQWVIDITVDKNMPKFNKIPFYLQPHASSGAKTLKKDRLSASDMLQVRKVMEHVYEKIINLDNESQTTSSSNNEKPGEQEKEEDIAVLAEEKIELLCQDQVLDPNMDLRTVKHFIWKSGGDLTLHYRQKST

IC50: 7 µM
Compound: OCCN1CCN(CC/C=C2/c3ccccc3Sc3ccc(C(F)(F)F)cc32)CC1 [Fluphenthixol]
